Experiments:
[1] = Inhibition of BCRP in human MCF7/MX100 cells assessed as reversal of topotecan resistance after 5 days by MTS/PMS assay
[2] = Inhibition of P-gp (unknown origin) expressed in human LCC6MDR cells assessed as reversal of paclitaxel resistance after 5 days by MTS/PMS assay
[3] = Inhibition of BCRP (unknown origin) transfected in HEK293/R2 cells assessed as reversal of topotecan resistance after 5 days by MTS/PMS assay

Row | EC50 [1] | EC50 [2] | EC50 [3] | SMILES
1 | 63 nM | 264 nM | 65 nM | Cc1ccc2oc(-c3ccc(OCCOCCOCCOCCOCCOc4ccc(-c5cc(=O)c6cc(C)ccc6o5)cc4)cc3)cc(=O)c2c1 [1,16-Bis[40-((6-methyl)-4H-chromen-4-on-2-yl)phenyl]-1,4,7,10,13,16-hexaoxahexadecane]
2 | 47 nM | 344 nM | 25 nM | O=c1cc(-c2ccc(OCCCc3cn(CCOCCOCCOc4ccc(-c5oc6ccccc6c(=O)c5OCc5ccccc5)cc4)nn3)cc2)oc2cc(F)ccc12
3 | 24 nM | 616 nM | 7.2 nM | COC(=O)c1cccc(COc2c(-c3ccc(OCCOCCn4cc(CCCOc5ccc6c(=O)cc(-c7ccccc7)oc6c5)nn4)cc3)oc3ccccc3c2=O)c1
4 | 280 nM | 897 nM | 190 nM | O=c1cc(-c2ccccc2)oc2cc(OCCN(Cc3ccccc3)Cc3cn(CCOc4ccc5c(=O)cc(-c6ccccc6)oc5c4)nn3)ccc12
5 | 18 nM | 264 nM | 43 nM | O=c1cc(-c2ccccc2)oc2cc(OCCCCc3cn(CCOCCOc4ccc(-c5cc(=O)c6cc(F)ccc6o5)cc4)nn3)ccc12
6 | 39 nM | 365 nM | 34 nM | O=c1cc(-c2ccccc2)oc2cc(OCCCCc3cn(CCOCCOc4ccc5c(=O)cc(-c6ccccc6)oc5c4)nn3)ccc12
7 | 24 nM | 605 nM | 33 nM | Cc1ccc2oc(-c3ccc(OCCCCc4cn(CCOCCOc5ccc(-c6oc7ccccc7c(=O)c6OCc6ccccc6)cc5)nn4)cc3)cc(=O)c2c1
8 | 94 nM | 288 nM | 47 nM | O=c1cc(-c2ccccc2)oc2cc(OCCCCc3cn(CCOCCOCCOc4ccc5c(=O)cc(-c6ccccc6)oc5c4)nn3)ccc12
9 | 58 nM | 403 nM | 54 nM | O=c1cc(-c2ccccc2)oc2cc(OCCOCCOCCn3cc(CN(CCOc4ccc5c(=O)cc(-c6ccccc6)oc5c4)Cc4ccccc4)nn3)ccc12
10 | 27 nM | 89 nM | 28 nM | O=c1cc(-c2ccc(OCCCc3cn(CCOCCOCCOc4ccc5c(=O)cc(-c6ccccc6)oc5c4)nn3)cc2)oc2cc(F)ccc12
11 | 84 nM | > 1000 nM | 133 nM | COC(=O)c1cccc(COc2c(-c3ccc(OCCOCCn4cc(CN(C)CCN(C)Cc5cn(CCOCCOc6ccc(-c7oc8ccccc8c(=O)c7OCc7cccc(C(=O)OC)c7)cc6)nn5)nn4)cc3)oc3ccccc3c2=O)c1
12 | 69 nM | 983 nM | 156 nM | O=c1cc(-c2ccccc2)oc2cc(OCCN(Cc3ccccc3)Cc3cn(CCOCCOCCOc4ccc(-c5oc6ccccc6c(=O)c5OCc5ccccc5)cc4)nn3)ccc12
13 | 20 nM | 422 nM | 24 nM | Cc1ccc2oc(-c3ccc(OCCCCc4cn(CCOCCOCCOc5ccc(-c6oc7ccccc7c(=O)c6OCc6ccccc6)cc5)nn4)cc3)cc(=O)c2c1
14 | 54 nM | 285 nM | 48 nM | O=c1cc(-c2ccccc2)oc2cc(OCCN(Cc3ccccc3)Cc3cn(CCOCCOc4ccc(-c5cc(=O)c6cc(F)ccc6o5)cc4)nn3)ccc12
15 | – | 313 nM | – | COC(=O)c1cccc(COc2c(-c3ccc(OCCOCCOCCn4cc(COCCOc5ccc6c(=O)cc(-c7ccccc7)oc6c5)nn4)cc3)oc3ccccc3c2=O)c1
16 | 195 nM | > 1000 nM | 285 nM | O=c1cc(-c2ccccc2)oc2cc(OCCOCc3cn(CCOCCOc4ccc(-c5cc(=O)c6cc(F)ccc6o5)cc4)nn3)ccc12
17 | – | 201 nM | – | O=c1cc(-c2ccc(OCCCc3cn(CCOCCOc4ccc(-c5cc(=O)c6ccccc6o5)cc4)nn3)cc2)oc2ccccc12
18 | 250 nM | > 1000 nM | 83 nM | O=c1cc(-c2ccccc2)oc2cc(OCCOCCOCCn3cc(CN(Cc4ccccc4)Cc4cn(CCOCCOCCOc5ccc6c(=O)cc(-c7ccccc7)oc6c5)nn4)nn3)ccc12
19 | 20 nM | 219 nM | 14 nM | Cc1ccc2oc(-c3ccc(OCCOCCOCCn4cc(CCCOc5ccc(-c6cc(=O)c7ccc(F)cc7o6)cc5)nn4)cc3)cc(=O)c2c1
20 | 39 nM | 679 nM | 70 nM | Cc1ccc2oc(-c3ccc(OCCCCc4cn(CCN(CCOc5ccc(-c6cc(=O)c7ccccc7o6)cc5)Cc5ccccc5)nn4)cc3)cc(=O)c2c1
21 | 2.3 nM | 246 nM | 2 nM | COC(=O)c1cccc(COc2c(-c3ccc(OCCOCCOCCn4cc(CCCOc5ccc(-c6cc(=O)c7ccc(F)cc7o6)cc5)nn4)cc3)oc3ccccc3c2=O)c1
22 | 22 nM | 490 nM | 42 nM | O=c1cc(-c2ccccc2)oc2cc(OCCCc3cn(CCOCCOc4ccc5c(=O)cc(-c6ccccc6)oc5c4)nn3)ccc12
23 | 264 nM | 967 nM | 230 nM | O=c1cc(-c2ccccc2)oc2cc(OCCOCc3cn(CCOCCOCCOc4ccc(-c5cc(=O)c6cc(F)ccc6o5)cc4)nn3)ccc12
24 | 78 nM | 259 nM | 60 nM | O=c1cc(-c2ccccc2)oc2cc(OCCCc3cn(CCOCCOCCOc4ccc(-c5oc6ccccc6c(=O)c5OCc5ccccc5)cc4)nn3)ccc12

Row | EC50 [1] | EC50 [2] | EC50 [3] | SMILES
25 | 278 nM | > 1000 nM | 153 nM | O=c1cc(-c2ccccc2)oc2cc(OCCOCCn3cc(CN(Cc4ccccc4)Cc4cn(CCOCCOc5ccc6c(=O)cc(-c7ccccc7)oc6c5)nn4)nn3)ccc12
26 | 18 nM | 437 nM | – | COC(=O)c1cccc(COc2c(-c3ccc(OCCOCCn4cc(COCCOc5ccc6c(=O)cc(-c7ccccc7)oc6c5)nn4)cc3)oc3ccccc3c2=O)c1
27 | 235 nM | 960 nM | 303 nM | O=c1cc(-c2ccc(OCCOCCn3cc(COCCOc4ccc5c(=O)cc(-c6ccccc6)oc5c4)nn3)cc2)oc2ccccc12
28 | 31 nM | 325 nM | 44 nM | O=c1cc(-c2ccccc2)oc2cc(OCCCCc3cn(CCOCCOCCOc4ccc(-c5cc(=O)c6cc(F)ccc6o5)cc4)nn3)ccc12
29 | – | 325 nM | 5.2 nM | COC(=O)c1cccc(COc2c(-c3ccc(OCCOCCn4cc(CCCCOc5ccc6c(=O)cc(-c7ccccc7)oc6c5)nn4)cc3)oc3ccccc3c2=O)c1
30 | 6.5 nM | 481 nM | 9.6 nM | COC(=O)c1cccc(COc2c(-c3ccc(OCCOCCn4cc(CCCOc5ccc(-c6cc(=O)c7ccc(F)cc7o6)cc5)nn4)cc3)oc3ccccc3c2=O)c1
31 | 14 nM | > 1000 nM | 2.4 nM | COC(=O)c1cccc(COc2c(-c3ccc(OCCOCCOCCn4cc(-c5ccc(-c6cn(CCOCCOCCOc7ccc(-c8oc9ccccc9c(=O)c8OCc8cccc(C(=O)OC)c8)cc7)nn6)cc5)nn4)cc3)oc3ccccc3c2=O)c1
32 | 177 nM | 515 nM | 57 nM | O=c1cc(-c2ccccc2)oc2cc(OCCCc3cn(CCOCCOCCOc4ccc5c(=O)cc(-c6ccccc6)oc5c4)nn3)ccc12
33 | 205 nM | 630 nM | 86 nM | O=c1cc(-c2ccc(OCCOCCn3cc(CN(CCOc4ccc5c(=O)cc(-c6ccccc6)oc5c4)Cc4ccccc4)nn3)cc2)oc2ccccc12
34 | 13 nM | > 1000 nM | 2.8 nM | COC(=O)c1cccc(COc2c(-c3ccc(OCCOCCOCCn4cc(-c5cccc(-c6cn(CCOCCOCCOc7ccc(-c8oc9ccccc9c(=O)c8OCc8cccc(C(=O)OC)c8)cc7)nn6)c5)nn4)cc3)oc3ccccc3c2=O)c1
35 | 4 nM | 161 nM | 3.1 nM | O=c1cc(-c2ccc(OCCCc3cn(CCOCCOCCOc4ccc(-c5cc(=O)c6cc(F)ccc6o5)cc4)nn3)cc2)oc2cc(F)ccc12
36 | 18 nM | 360 nM | 47 nM | O=c1cc(-c2ccc(OCCOCCOCCn3cc(CCCCOc4ccc5c(=O)cc(-c6ccccc6)oc5c4)nn3)cc2)oc2ccccc12
37 | 203 nM | 384 nM | 52 nM | O=c1cc(-c2ccc(OCCOCCOCCn3cc(CCCOc4ccc5c(=O)cc(-c6ccccc6)oc5c4)nn3)cc2)oc2ccccc12
38 | 205 nM | 670 nM | – | O=c1cc(-c2ccc(OCCOCCn3cc(CN(Cc4ccccc4)Cc4cn(CCOCCOc5ccc(-c6cc(=O)c7ccccc7o6)cc5)nn4)nn3)cc2)oc2ccccc12
39 | 2.2 nM | > 1000 nM | 6.8 nM | COC(=O)c1cccc(COc2c(-c3ccc(OCCOCCn4cc(CN(Cc5cn(CCOCCOc6ccc(-c7oc8ccccc8c(=O)c7OCc7cccc(C(=O)OC)c7)cc6)nn5)c5ccccc5)nn4)cc3)oc3ccccc3c2=O)c1
40 | – | 155 nM | 7.2 nM | O=c1cc(-c2ccc(OCCOCCn3cc(CCCOc4ccc(-c5cc(=O)c6ccc(F)cc6o5)cc4)nn3)cc2)oc2ccccc12
41 | 46 nM | 763 nM | – | Cc1ccc2oc(-c3ccc(OCCOCCOCCn4cc(CN(Cc5ccccc5)Cc5cn(CCOCCOCCOc6ccc(-c7cc(=O)c8cc(C)ccc8o7)cc6)nn5)nn4)cc3)cc(=O)c2c1
42 | – | 430 nM | – | COC(=O)c1cccc(COc2c(-c3ccc(OCCOCCn4cc(CCCCOc5ccc(-c6cc(=O)c7cc(C)ccc7o6)cc5)nn4)cc3)oc3ccccc3c2=O)c1
43 | – | 420 nM | – | COC(=O)c1cccc(COc2c(-c3ccc(OCCOCCOCCn4cc(CCCCOc5ccc(-c6cc(=O)c7cc(C)ccc7o6)cc5)nn4)cc3)oc3ccccc3c2=O)c1
44 | 64 nM | – | 15 nM | Cc1ccc2oc(-c3ccc(OCCCCc4cn(CCOCCOc5ccc(-c6cc(=O)c7cc(F)ccc7o6)cc5)nn4)cc3)cc(=O)c2c1
45 | 151 nM | – | – | Cc1ccc2oc(-c3ccc(OCCCCc4cn(CCOCCOCCOc5ccc6c(=O)cc(-c7ccccc7)oc6c5)nn4)cc3)cc(=O)c2c1
46 | – | 345 nM | – | O=c1cc(-c2ccccc2)oc2cc(OCCOCc3cn(CCOCCOc4ccc(-c5oc6ccccc6c(=O)c5OCc5ccccc5)cc4)nn3)ccc12
47 | – | 285 nM | – | COC(=O)c1cccc(COc2c(-c3ccc(OCCOCCOCCn4cc(CCCCOc5ccc6c(=O)cc(-c7ccccc7)oc6c5)nn4)cc3)oc3ccccc3c2=O)c1
